In patent publication US20040009904A1, “APL immunoreactive peptides, conjugates thereof and methods of treatment for aPL antibody-mediated pathologies” (priority 1995, published 2004):
Bridge positions count the residues as written; N and C are the ends. Peptide text beside a SMILES is read from it.

Legend:
ACA-6501 aPL antibody = assay: Competitive binding peptide-ELISA, plates coated with tetravalent peptide ACA-6501/3B10; design: species or system human; details: monomeric peptide, ACA-6501 serum
Description: Once ELISA-positive peptides are identified, it is necessary to quantitate their relative binding affinity to the aPL antibodies and to determine whether or not two peptides bind the same population of antibodies in a given patient serum via a peptide-competition ELISA assay. In this assay, various monomeric peptides compete with tetravalent peptides coated on a microtitration plate well. To perform the assay, the peptides to be evaluated are synthesized as monomers, ie., without the lysine branches employed in the synthesis of the tetravalent peptides, using standard Fmoc chemistry. The monomeric peptides are then purified and dissolved at known concentrations. Wells of a microtitration plate are coated with a tetravalent peptide known to bind to the aPL antibody. Serial dilutions of the monomeric peptides are incubated with a constant dilution of the aPL antibody. The dilution of the aPL antibody was previously determined by titering the antibody against the tetravalent peptide and selecting a dilution on the downslope of the titration curve. After incubating the antibody and monomeric peptides for one hour, the antibody/peptide solutions are added to the microtitration wells and a standard […] ELISA is performed. The concentration of each monomeric peptide that decreases binding of the aPL antibody with the tetravalent peptide is determined by plotting the calorimetric readings obtained for each well. The 50% inhibition point is used as the measure of the relative strength of binding for the monomeric peptides.
(A) Each well of an Immulon II plate (Dynatech Laboratories, Inc., Chantilly Va.) was coated with 100 μL of a solution containing 10 μg tetravalent peptide ACA 6501/3B10 in 50 mM sodium carbonate, pH 9.5, containing 35 mM sodium bicarbonate (Fisher Scientific, Pittsburgh, Pa., reagent grade) for at least 1 hour at RT, except for three wells used as blank controls. […]

ACA-6501 [1] = assay: Phage-ELISA; format: binding, human; details: phage clones coated on wells, affACA-6501 2.5 μg/mL
Experimental: This method of selecting phage requires very tight binding of the insert to the screening antibody. Phage are directly coated onto wells of a microtitration plate and incubated with the screening antibody. Following washes to remove unbound antibody, an anti-human IgG alkaline phosphatase conjugate is added to bind any aPL antibodies bound to the phage. APL antibodies are then detected by adding a calorimetric substrate to the well which will react with alkaline phosphatase according to methods well known in the art.
Three mL cultures were prepared from 35 clones previously isolated with affinity purified ACA-6501 in several phage library screens as well as one fUSE 2 phage clone lacking a peptide insert which was used as a control. After centrifugation for 3 minutes at 17,000×g, 100 μL from each phage supernatant (adjusted to −2×10^11 particles/mL, based on absorbance) was added to microtitration plate wells (Falcon, Becton-Dickinson Labware, Lincoln Park, N.Y.) and allowed to incubate overnight at 4° C. Following four washes with TBS 7.4, the plate was blocked with 125 μL of 0.5% BSA/TBS for 1 hour at RT. After another four TBS washes, 100 μL of affACA-6501 previously diluted to 2.5 μg/mL in TBS/BSA was added to each well and allowed to incubate 1 hour at 37° C. Following an additional four washes, 100 μL anti-human IgG diluted 1:1000 in TBS/0.5% Tween was added to each well. After 1 hour at RT, enzyme substrate was added and the incubation allowed to proceed for 2 hours. Following the addition of 50 μL 0.2 M Na2HPO4 to stop the reaction, absorbance was measured at 550 nm in the automated plate absorbance reader. […] The sequences for these clones are showvn in Table 2.

ACA-6501 [2] = assay: Competitive binding peptide ACA ELISA, cardiolipin/β2-GPI-coated plates; design: species or system human; details: peptide 200 μg/mL, affinity purified antibody
Method in brief: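 Monomeric peptides at several amounts were preincubated ~1 h at RT with ACA-6501 serum (final 1:400), then added to cardiolipin-coated, fish-gelatin-blocked plates with β2-GPI for 1 h at RT. Bound IgG was detected with alkaline phosphatase anti-human IgG and phenolphthalein monophosphate, read at 550 nm. IC50 was the peptide amount at half-maximal absorbance.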

ACA-6626 = assay: as above; design: species or system human; details: peptide 200 μg/mL, affinity purified antibody
Experimental: (§1) A variation of this assay uses microtitration plates coated with human β2-glycoprotein I/cardiolipin (β2-GPI/CL) instead of tetravalent peptide and tests the ability of monomeric peptides to block the binding of aPL antibody to the epitope(s) on β2-GPI/CL. In this assay, IgG-depleted human serum at an optimized concentration is used as a source of β2-GPI. The monomeric peptides at several concentrations are incubated with an optimized concentration of aPL antibody in a manner analogous to the assay which employs tetravalent peptide as a plate substrate. Following the incubation of aPL/peptide in (β2-GPI/CL) plates, antibody binding and the peptide concentration required for 50% inhibition is determined at half-maximal absorbance as in the tetravalent assay.
(§2) Peptide sequences for all five peptides immediately follow the table. All were tested using the competitive binding peptide ACA ELISA using CL/β2-GPI plates as described herein.
(§3) (B) Immulon I® 96-well, flat-bottom, polystyrene microtitration plates (Dynatech Laboratories, Inc., Chantilly, Va.) were coated with 30 μL/well of cardiolipin (CL, 50 μg; Sigma Chemical Co., St. Louis, Mo.) in ethanol. Two control wells received 30 μL ethanol only. After overnight evaporation at 4° C., each well was blocked with 200 μL of 5% (w/v) fish gelatin in PBS for 2 hours at RT.
(§4) The CL/β2-GPI microtitration plate was washed 5 times with TBS and 100 μL aliquots in duplicate from Eppendorf tubes #1, 2, 3, and 4 containing the antibody-peptide (or no peptide mixtures) were added to the wells. A volume of 100 μL from tube #4 was added to the duplicate control wells containing no cardiolipin. The microtitration plate was incubated for 1 hour at RT with agitation at 40 rpm in an orbital shaker (American Scientific, Rotator V), washed 5 times with TBS and then 100 μL of 1:1000 goat anti-human IgG alkaline phosphatase conjugate (Zymed, Cat No. 62-8422) in 0.5% (w/v) BSA-TBS was added. Following incubation for 1 hour at RT, the microtitration plate was again washed 5 times with TBS and the colorimetric enzyme detection developed by adding 100 μL of PMPP solution (7.8 g phenolphthalein monophosphate plus 69.5 g of 2-amino-2-methyl-1-propanol in 100 mL water stock solution diluted 1:26 with water). After 21 minutes, the reaction was stopped by adding 50 μL of 0.2 M Na2HPO4 (Mallinckrodt) to each well. Absorbance at 550 nm was read in a microplate reader (Bio-Tek Instruments, Model EL 311). The amount of peptide that inhibited ACA-6501 binding by 50%, the IC50, was calculated from the graph at the intersection of half-maximal absorbance with amount of peptide added.

ACA-6638 = assay: as above; design: species or system human; details: peptide 200 μg/mL, affinity purified antibody
Experimental: as §1, §2, §3, §4

ACA-6641 = assay: as above; design: species or system human; details: peptide 200 μg/mL, affinity purified antibody
Experimental: as §1, §2, §3, §4

ACA-6644 = assay: as above; design: species or system human; details: peptide 200 μg/mL, affinity purified antibody
Experimental: as §1, §2, §3, §4

ACA-6701 = assay: as above; design: species or system human; details: peptide 200 μg/mL, affinity purified antibody
Experimental: as §1, §2, §3, §4

ACA-6903 = assay: as above; design: species or system human; details: peptide 200 μg/mL, affinity purified antibody
Experimental: as §1, §2, §3, §4

ACA-7004 = assay: as above; design: species or system human; details: peptide 200 μg/mL, affinity purified antibody
Experimental: as §1, §2, §3, §4

ACA-7005 = assay: as above; design: species or system human; details: peptide 200 μg/mL, affinity purified antibody
Experimental: as §1, §2, §3, §4

ACA antibodies = assay: Competitive binding peptide ACA ELISA, cardiolipin/β2-GPI-coated plates, panel of ACA antibodies (average); design: species or system human; details: peptide 200 μg/mL, average over nine antibodies
Experimental: as §1, §2
As noted in Section I above, one synthetic peptide, 6641/3G3 was tested against several high titer ACA antisera. This peptide appeared to be crossreactive with the vast majority of ACA antisera tested as illustrated in FIG. 14.
as §3, §4

CC(C)C[C@@H]1NC(=O)[C@H](CC(C)C)NC(=O)[C@H](CC(C)C)NC(=O)[C@@H](NC(=O)[C@@H]2CCCN2)CSSC[C@@H](C(=O)N2CCC[C@H]2C(=O)NCC(=O)O)NC(=O)[C@H](CCCNC(=N)N)NC(=O)[C@H](CC(=O)O)NC(=O)[C@@H]2CCCN2C(=O)[C@H](C)NC1=O [peptide 139] (H-PCLLLAPDRCPG-OH; disulfide 2-10)
amount of peptide producing 50% inhibition of binding of ACA-6501 aPL antibody to tetravalent peptide ACA-6501/3B10 (ACA-6501 aPL antibody): 6.9 µg

CC(C)C[C@@H]1NC(=O)[C@H](CC(C)C)NC(=O)[C@H](CC(C)C)NC(=O)[C@@H](NC(=O)[C@@H]2CCCN2C(=O)CN)CSSC[C@@H](C(=O)N2CCC[C@H]2C(=O)NCC(=O)O)NC(=O)[C@H](CCCNC(=N)N)NC(=O)[C@H](CC(=O)O)NC(=O)[C@@H]2CCCN2C(=O)[C@H](C)NC1=O [peptide 142] (H-GPCLLLAPDRCPG-OH; disulfide 3-11)
amount of peptide producing 50% inhibition of binding of ACA-6501 aPL antibody to tetravalent peptide ACA-6501/3B10 (ACA-6501 aPL antibody): 0.7 µg

CC(C)C[C@@H]1NC(=O)[C@H](CC(C)C)NC(=O)[C@H](CC(C)C)NC(=O)[C@@H](NC(=O)[C@@H]2CCCN2C(=O)CNC(=O)[C@H](C)N)CSSC[C@@H](C(=O)N2CCC[C@H]2C(=O)NCC(=O)O)NC(=O)[C@H](CCCNC(=N)N)NC(=O)[C@H](CC(=O)O)NC(=O)[C@@H]2CCCN2C(=O)[C@H](C)NC1=O [peptide 143] (H-AGPCLLLAPDRCPG-OH; disulfide 4-12)
amount of peptide producing 50% inhibition of binding of ACA-6501 aPL antibody to tetravalent peptide ACA-6501/3B10 (ACA-6501 aPL antibody): 0.9 µg

CILLAHDRC [3E7, ACA-6501 phage clone insert]
signal in the phage-ELISA (ACA-6501 [1]): significant signals

CLVLALDRC [3B6, ACA-6501 phage clone insert]
signal in the phage-ELISA (ACA-6501 [1]): significant signals

CTILTLDRC [2H2, ACA-6501 phage clone insert]
signal in the phage-ELISA (ACA-6501 [1]): significant signals

GILALDYV GG (GILALDYVGG) [6644/CBf]
Percent Inhibition of AffACA by Peptide Monomers, 6501 (ACA-6501 [2]): 37% | Percent Inhibition of AffACA by Peptide Monomers, 6626 (ACA-6626): 37% | Percent Inhibition of AffACA by Peptide Monomers, 6638 (ACA-6638): 60% | Percent Inhibition of AffACA by Peptide Monomers, 6641 (ACA-6641): 28% | Percent Inhibition of AffACA by Peptide Monomers, 6644 (ACA-6644): 18% | Percent Inhibition of AffACA by Peptide Monomers, 6701 (ACA-6701): 22% | Percent Inhibition of AffACA by Peptide Monomers, 6903 (ACA-6903): 43% | Percent Inhibition of AffACA by Peptide Monomers, 7004 (ACA-7004): 54% | Percent Inhibition of AffACA by Peptide Monomers, 7005 (ACA-7005): 57% | Percent Inhibition of AffACA by Peptide Monomers, Ave. (ACA antibodies): 39%
